What was measured:
Details in all cases: human; call rule not given here
[1] = test system: Hepatotoxicity; assay: FDA HLAED, liver enzyme composite activity
[2] = test system: Hepatotoxicity; assay: FDA HLAED, serum glutamic pyruvic transaminase (SGPT) increase
[3] = test system: Hepatotoxicity; assay: FDA HLAED, lactate dehydrogenase (LDH) increase
[4] = test system: Hepatotoxicity; assay: FDA HLAED, alkaline phosphatase increase
[5] = test system: Hepatotoxicity; assay: FDA HLAED, serum glutamic oxaloacetic transaminase (SGOT) increase
[6] = test system: Hepatotoxicity; assay: FDA HLAED, gamma-glutamyl transferase (GGT) increase
For GGT Increase - Index Value in this document: reference of the scale not given here.
For LDH Increase - Index Value in this document: reference of the scale not given here.

| SMILES | Composite Activity - Active [1] | Composite Activity - Marginal [1] | Composite Activity - Score [1] | SGPT Increase - Activity Score [2] | SGPT Increase - Index Value [2] | SGPT Increase - Number of Reports [2] | LDH Increase - Activity Score [3] | LDH Increase - Index Value [3] | LDH Increase - Number of Reports [3] | Alkaline Phosphatase Increase - Activity Score [4] | Alkaline Phosphatase Increase - Index Value [4] | Alkaline Phosphatase Increase - Number of Reports [4] | SGOT Increase - Activity Score [5] | SGOT Increase - Index Value [5] | SGOT Increase - Number of Reports [5] | GGT Increase - Activity Score [6] | GGT Increase - Index Value [6] | GGT Increase - Number of Reports [6] | further results |
| --- | --- | --- | --- | --- | --- | --- | --- | --- | --- | --- | --- | --- | --- | --- | --- | --- | --- | --- | --- |
| N[C@@H](C(=O)N[C@@H]1C(=O)N2C(C(=O)O)=C(Cl)CC[C@H]12)c1ccccc1 [LORACARBEF ANHYDROUS] | 0 | 0 | Inactive | Inactive | 0.2 | < 4 | Inactive | 0 | < 4 | Inactive | 0.2 | < 4 | Inactive | 0.2 | < 4 | Inactive | 0.1 | < 4 | – |
| CCOC(=O)N1CCC(=C2c3ccc(Cl)cc3CCc3cccnc32)CC1 [LORATADINE] | – | – | – | Inactive | 0.6 | >= 4 | Inactive | 0.2 | < 4 | Inactive | 0.7 | >= 4 | Inactive | 0.9 | >= 4 | Inactive | 0.5 | >= 4 | Composite Activity - Active ([1]; Liver): 0; Composite Activity - Marginal ([1]; Liver): 0; Composite Activity - Score ([1]; Liver): Inactive |
| CCCCc1nc(Cl)c(CO)n1Cc1ccc(-c2ccccc2-c2nn[nH]n2)cc1 [LOSARTAN] | 0 | 0 | Inactive | Inactive | 1 | >= 4 | Inactive | 0.4 | < 4 | Inactive | 0.4 | < 4 | Inactive | 0.8 | >= 4 | Inactive | 0.6 | < 4 | – |
| CNCCCC12CCC(c3ccccc31)c1ccccc12 [MAPROTILINE] | – | – | – | Inactive | 0.3 | < 4 | Inactive | 0 | < 4 | Inactive | 0.5 | < 4 | Inactive | 0.3 | < 4 | Inactive | 0 | < 4 | Composite Activity - Active ([1]; Liver): 0; Composite Activity - Marginal ([1]; Liver): 0; Composite Activity - Score ([1]; Liver): Inactive |
| C=C1c2c(Cl)ccc(O)c2C(=O)C2=C(O)[C@]3(O)C(=O)C(C(N)=O)=C(O)[C@@H](N(C)C)[C@@H]3[C@@H](O)[C@H]12 [MECLOCYCLINE] | 0 | 0 | Inactive | Inactive | 0 | < 4 | Inactive | 0 | < 4 | Inactive | 0 | < 4 | Inactive | 0 | < 4 | Inactive | 0 | < 4 | – |
| Cc1ccc(Cl)c(Nc2ccccc2C(=O)O)c1Cl [MECLOFENAMIC ACID] | 0 | 0 | Inactive | Inactive | 0 | < 4 | Inactive | 0 | < 4 | Inactive | 0 | < 4 | Inactive | 0 | < 4 | Inactive | 0 | < 4 | – |
| OC(c1cc(C(F)(F)F)nc2c(C(F)(F)F)cccc12)C1CCCCN1 (configuration not stated) [MEFLOQUINE] | 3 | 0 | Active | Active | 32.5 | >= 4 | Inactive | 0 | < 4 | Inactive | 7.2 | < 4 | Active | 25.3 | >= 4 | Active | 18 | >= 4 | – |
| C[C@@H](O)[C@H]1C(=O)N2C(C(=O)O)=C(S[C@@H]3CN[C@H](C(=O)N(C)C)C3)[C@H](C)[C@H]12 [MEROPENEM] | 2 | 1 | Active | Active | 50.8 | < 4 | Marginally Active | 33.8 | < 4 | Inactive | 0 | < 4 | Active | 50.8 | < 4 | Inactive | 0 | < 4 | – |
| Nc1ccc(O)c(C(=O)O)c1 [MESALAMINE] | 0 | 0 | Inactive | Inactive | 1.8 | >= 4 | Inactive | 1.1 | >= 4 | Inactive | 1.3 | >= 4 | Inactive | 2.2 | >= 4 | Inactive | 1.5 | >= 4 | – |

Source: ChEMBL document CHEMBL1697781, “Assessment of the health effects of chemicals in humans: II. Construction of an adverse effects database for QSAR modeling” (Curr Drug Discov Technol, 2004)
